Measurements published in PubChem BioAssay AID2060344 (Molecular Pharmacology Branch, DTP, NCI, 2025).

Test system: SK-MEL-2 multi-cell spheroids, viability
Test: Anticancer human tumor SK-MEL-2 cell line growth inhibition [TAK];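 further: spheroids exposed to drugs for seven days before readout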;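 on viability, T/C: percent of DMSO vehicle control luminescence so 100% = untreated viability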
Conditions: for IC50: curve of first compound; for viability, T/C: stronger effect = lower value
Excerpt: Combinatorial screen of targeted agents with TAK-243 and ipatasertib in multi-cell type tumor spheroids
A high-throughput screen of multi-cell type tumor spheroids was designed to identify active combinations of targeted small molecules and TAK-243 or ipatasertib. Complex spheroids include a stromal component modeled by human endothelial cells (HUVEC) and fibroblasts modeled by human mesenchymal stem cells (MSCs). The concentration ranges selected for each drug and investigational agent were based upon clinically achievable concentrations if the clinical Cmax of the agent was known.
Compounds. The drugs and investigational agents: TAK-243 (785004), ipatasertib (767898), everolimus (733504), selumetinib (741078), bortezomib (756655), trametinib (758246), ixazomib (758254), vemurafenib (761431), dabrafenib (764134), sapanisertib (764658), alpelisib (765974), and copanlisib (816437), were obtained from the National Cancer Institute (NCI) Developmental Therapeutics Program Chemical Repository. The FDA-approved anticancer drug set is available from the NCI Developmental Therapeutics Program. […] The stock solutions were prepared in dimethyl sulfoxide (DMSO, Sigma-Aldrich, St. Louis, MO, cat. D2650) at 800-fold the tested concentration and stored at -70 degrees C prior to their use. All drugs and investigational agents were tested over a range starting from a high concentration at or near the clinical Cmax and decreasing in half-log increments. If the clinical Cmax for an agent had not been determined, the highest concentration tested was 10 microM.
NCI60 Cell Culture. NCI60 cell lines were obtained from the NCI Developmental Therapeutics Program Tumor Repository. For each lot of cells, the Repository performed Applied Biosystems AmpFLSTR Identifiler testing with PCR amplification to confirm consistency with the published Identifier STR profile for each cell line. Cells were kept in continuous culture for no more than 20 passages. The optimal seeding densities for each of the cell lines at each time point assessed were determined prior to performing the concentration response studies. Briefly, the NCI60 human tumor lines were grown as monolayers in RPMI 1640 medium supplemented with 10% FBS and 2 mmol/L L-glutamine.
An additional 2 lines were from the NCI60 cell line panel including melanomas, MALME-3M and SK-MEL-2. Pooled donor human umbilical vein endothelial cells (HUVEC, Lonza, cat. CC-2519) and human mesenchymal stem cells (hMSC, Lonza, cat. PT-2501) were purchased from Lonza (Walkersville, MD).
PDMR cell lines were grown in complete medium (DC medium): Dulbecco's modified Eagle's medium (DMEM)/F12 supplemented with 5% fetal bovine serum (FBS), 2 mM L-glutamine, 100 U/mL penicillin and 100 µg/ml streptomycin, 0.4 µg/ml hydrocortisone, 10 ng/ml epidermal growth factor (EGF) recombinant human protein, 24 µg/mL adenine, and 0.1 mg/mL primocin. During culture from frozen stock vials, PDMR cells were cultured in the same medium containing 10 µM Y-27632 (see Table 3). The PDCs were cultured in complete DMEM/F12 media without 10 microM Y-27632 dihydrochloride for at least two passages prior to the screen. The pooled donor HUVEC and hMSC were cultured in endothelial cell growth medium 2 (PromoCell, Heidelberg, Germany, cat. C-22011) and mesenchymal stem cell growth medium 2 (PromoCell, cat. C-28009), respectively. For all experiments, HUVEC and hMSC were used at passages </=5.
For the pre-screen, cell seeding densities were determined from a titration spanning the range from 5,000 to 313 cells per well. The mct-spheroids including 60% malignant cells, 25% HUVEC and 15% MSC dispensed as a mixture into U-bottom Ultra-Low Attachment 384-well plates (Corning, NY)
High-throughput Drug Combination Screening.
Prior to their inoculation into 384-well plates, malignant cells, HUVEC, and hMSC were removed from T flasks using TrypLE express (Thermo Fisher Scientific, cat. 12605036) and harvested by centrifugation for 5 min at 233 x g. […]

SMILES: CC(C)n1nc(-c2ccc3oc(N)nc3c2)c2c(N)ncnc21 + CC(C)NCC(C(=O)N1CCN(c2ncnc3c2C(C)CC3O)CC1)c1ccc(Cl)cc1
- IC50 (second compound 0.3 µM): 0.0295 µM
- IC50 (second compound 0.949 µM): 0.0107 µM
- IC50 (second compound 3 µM): 0.00322 µM
- IC50 (second compound 9.49 µM): 0.00131 µM
- IC50 (second compound 30 µM): 0.000858 µM
- viability, T/C (second compound 0.3 µM, first compound 0.000316 µM): 98.6%
- viability, T/C (second compound 0.3 µM, first compound 0.001 µM): 92.4%
- viability, T/C (second compound 0.3 µM, first compound 0.00316 µM): 82.1%
- viability, T/C (second compound 0.3 µM, first compound 0.01 µM): 76.8%
- viability, T/C (second compound 0.3 µM, first compound 0.0316 µM): 45.8%
- viability, T/C (second compound 0.3 µM, first compound 0.1 µM): 25.5%
- viability, T/C (second compound 0.949 µM, first compound 0.000316 µM): 85.6%
- viability, T/C (second compound 0.949 µM, first compound 0.001 µM): 82%
- viability, T/C (second compound 0.949 µM, first compound 0.00316 µM): 58.7%
- viability, T/C (second compound 0.949 µM, first compound 0.01 µM): 55.6%
- viability, T/C (second compound 0.949 µM, first compound 0.0316 µM): 33.4%
- viability, T/C (second compound 0.949 µM, first compound 0.1 µM): 19%
- viability, T/C (second compound 3 µM, first compound 0.000316 µM): 66%
- viability, T/C (second compound 3 µM, first compound 0.001 µM): 62.3%
- viability, T/C (second compound 3 µM, first compound 0.00316 µM): 48.5%
- viability, T/C (second compound 3 µM, first compound 0.01 µM): 37.8%
- viability, T/C (second compound 3 µM, first compound 0.0316 µM): 27.2%
- viability, T/C (second compound 3 µM, first compound 0.1 µM): 12.5%
- viability, T/C (second compound 9.49 µM, first compound 0.000316 µM): 56.3%
- viability, T/C (second compound 9.49 µM, first compound 0.001 µM): 54.4%
- viability, T/C (second compound 9.49 µM, first compound 0.00316 µM): 42.2%
- viability, T/C (second compound 9.49 µM, first compound 0.01 µM): 34.7%
- viability, T/C (second compound 9.49 µM, first compound 0.0316 µM): 25.1%
- viability, T/C (second compound 9.49 µM, first compound 0.1 µM): 13.6%
- viability, T/C (second compound 30 µM, first compound 0.000316 µM): 52.6%
- viability, T/C (second compound 30 µM, first compound 0.001 µM): 51.4%
- viability, T/C (second compound 30 µM, first compound 0.00316 µM): 41.2%
- viability, T/C (second compound 30 µM, first compound 0.01 µM): 32.9%
- viability, T/C (second compound 30 µM, first compound 0.0316 µM): 20.7%
- viability, T/C (second compound 30 µM, first compound 0.1 µM): 9.08%

SMILES: CCCS(=O)(=O)Nc1ccc(F)c(C(=O)c2c[nH]c3ncc(-c4ccc(Cl)cc4)cc23)c1F + CC(C)NCC(C(=O)N1CCN(c2ncnc3c2C(C)CC3O)CC1)c1ccc(Cl)cc1
- IC50 (second compound 0.3 µM): 25.9 µM
- IC50 (second compound 0.949 µM): 24 µM
- IC50 (second compound 3 µM): 13.1 µM
- IC50 (second compound 9.49 µM): 64.5 µM
- IC50 (second compound 30 µM): 18.8 µM
- viability, T/C (second compound 0.3 µM, first compound 0.316 µM): 127%
- viability, T/C (second compound 0.3 µM, first compound 1 µM): 108%
- viability, T/C (second compound 0.3 µM, first compound 3.16 µM): 105%
- viability, T/C (second compound 0.3 µM, first compound 10 µM): 118%
- viability, T/C (second compound 0.3 µM, first compound 31.6 µM): 15.1%
- viability, T/C (second compound 0.3 µM, first compound 100 µM): 57.5%
- viability, T/C (second compound 0.949 µM, first compound 0.316 µM): 121%
- viability, T/C (second compound 0.949 µM, first compound 1 µM): 110%
- viability, T/C (second compound 0.949 µM, first compound 3.16 µM): 107%
- viability, T/C (second compound 0.949 µM, first compound 10 µM): 80.3%
- viability, T/C (second compound 0.949 µM, first compound 31.6 µM): 31.6%
- viability, T/C (second compound 0.949 µM, first compound 100 µM): 49.3%
- viability, T/C (second compound 3 µM, first compound 0.316 µM): 115%
- viability, T/C (second compound 3 µM, first compound 1 µM): 110%
- viability, T/C (second compound 3 µM, first compound 3.16 µM): 105%
- viability, T/C (second compound 3 µM, first compound 10 µM): 61.1%
- viability, T/C (second compound 3 µM, first compound 31.6 µM): 14.3%
- viability, T/C (second compound 3 µM, first compound 100 µM): 10.9%
- viability, T/C (second compound 9.49 µM, first compound 0.316 µM): 112%
- viability, T/C (second compound 9.49 µM, first compound 1 µM): 120%
- viability, T/C (second compound 9.49 µM, first compound 3.16 µM): 107%
- viability, T/C (second compound 9.49 µM, first compound 10 µM): 114%
- viability, T/C (second compound 9.49 µM, first compound 31.6 µM): 120%
- viability, T/C (second compound 9.49 µM, first compound 100 µM): 10.4%
- viability, T/C (second compound 30 µM, first compound 0.316 µM): 121%
- viability, T/C (second compound 30 µM, first compound 1 µM): 124%
- viability, T/C (second compound 30 µM, first compound 3.16 µM): 64.3%
- viability, T/C (second compound 30 µM, first compound 10 µM): 119%
- viability, T/C (second compound 30 µM, first compound 31.6 µM): 2.99%
- viability, T/C (second compound 30 µM, first compound 100 µM): 2.24%
